The results in this text go back to patent publication US7737166B2, “Antifungal bicyclic hetero ring compounds” (Daiichi Sankyo Company, Limited, priority 2005, dated 2010).

What all share (test): Antifungal activity (GI80), growth inhibition in YPD20 medium by absorbance at 600 nm
What all share (type): cell-based

One assay deals with C. albicans ATCC MYA-573. The settings on record: minimum concentration for at least 80% cell growth inhibition, 37° C., absorbance 600 nm; for IC80: Candida albicans, read-out: GI80 (μg/ml) C. albicans ATCC MYA-573. On the procedure: (§1) The antifungal activity of the compounds of the invention was determined according to the method mentioned below.
(§2) An YPD20 medium (1% yeast extract, 2% peptone, 20% glucose) was used,
(§3) (2) Preparation of Cell Liquid for Inoculation:
(§4) Cells incubated overnight with Sabouraud dextrose agar at 30° C. were suspended in 0.1% Tween 80-added saline, and then added to a concentrated medium (1.33% yeast extract, 2.67% peptone, 13.33% glucose) so that the final cell concentration could be 5×10^3 cells/ml, thereby preparing a cell liquid for inoculation.
(§5) (3) Production of Chemical Dilution Plate:
(§6) A metered sample was dissolved in dimethyl sulfoxide, and a 2-fold dilution series was prepared using dimethyl sulfoxide. A chemical dilution of 2 μl each was added to a flat-bottom 96-well plate with 40% glucose (48 μl) put in each well, thereby producing a chemical dilution plate.
(§7) (4) Inoculation and Cultivation of Cell Liquid:
(§8) The cell liquid (150 μl) prepared in (2) was added to the chemical dilution plate produced in (3), followed by aerobic static cultivation at 37° C.
(§9) (5) Determination of Antifungal Activity (GI80 Value):
(§10) After cultivation for […], the plate was stirred, and its absorbance (600 nm) was measured. Based on the absorbance as the index, the minimum chemical concentration for at least 80% cell growth inhibition relative to the cell growth in the chemical-free well was computed as a GI80 value.

In the next assay the test system is C. albicans ATCC90028. The note with it: 37° C., absorbance 600 nm; for IC80: Candida albicans, ATCC90028, minimum concentration for at least 80% cell growth inhibition, read-out: GI80 (μg/ml) C. albicans ATCC90028; for GI80 (μg/ml) C. albicans ATCC90028: minimum concentration for at least 80% cell growth inhibition. As to the method:
as §1, §2, §3, §4, §5, §6, §7, §8, §9, §10

A further assay has as its system C. glabrata ATCC48435. The settings on record: 37° C., absorbance 600 nm; for IC80: Nakaseomyces glabratus, ATCC48435, minimum concentration for at least 80% cell growth inhibition, read-out: GI80 (μg/ml) C. glabrata ATCC48435; for GI80 (μg/ml) C. glabrata ATCC48435: minimum concentration for at least 80% cell growth inhibition. As to the method:
as §1, §2, §3, §4, §5, §6, §7, §8, §9, §10

SMILES strings stand for the structures. Values after ≈ are worked out from the molar mass of the structure shown.

Take `CCOC(=O)[C@@H]1C[C@H]1c1nc2c(C#N)c(C)c(-c3ccccc3)c(N3CC[C@H](N(C)C)C3)c2o1` (relative stereo) [Example 112, Ethyl (1R*,2R*)-2-{4-cyano-7-[(3S)-3-(dimethylamino)pyrrolidin-1-yl]-5-methyl-6-phenyl-1,3-benzoxazol-2-yl}cyclopropanecarboxylate]: the IC80 in the assay with C. albicans ATCC MYA-573 is 0.063 µg/mL (≈ 0.137 µM); with C. albicans ATCC90028 it was 0.032 µg/mL (≈ 0.0698 µM); with C. glabrata ATCC48435 it was 0.032 µg/mL (≈ 0.0698 µM).
Take `Cc1c(-c2ccccc2)c(N2CC[C@H](N(C)C)C2)c2oc([C@@H]3C[C@H]3C(=O)N(C)C)nc2c1C#N` (relative stereo) [Example 135, (1R*,2R*)-2-[4-Cyano-7-((S)-3-dimethylamino-pyrrolidinyl)-5-methyl-6-phenyl-benzoxazol-2-yl]-cyclopropanecarbonyldimethylamide]: the “GI80 (μg/ml) C. albicans ATCC MYA-573” value in the assay on C. albicans ATCC MYA-573 turned out to be 0.125 µg/mL (≈ 0.273 µM). Further, in the assay with C. albicans ATCC90028, the “GI80 (μg/ml) C. albicans ATCC90028” value amounted to 0.125 µg/mL (≈ 0.273 µM). Moreover, the “GI80 (μg/ml) C. glabrata ATCC48435” value with C. glabrata ATCC48435 was 0.063 µg/mL (≈ 0.138 µM).
Turning to `Cc1c(-c2ccccc2)c(N2CC[C@H](N(C)C)C2)c2oc(C(C)(C)COCc3ccccc3)nc2c1C#N` [Example 13, 2-[2-(Benzyloxy)-1,1-dimethylethyl]-7-[(3S)-3-(dimethylamino)pyrrolidin-1-yl]-5-methyl-6-phenyl-1,3-benzoxazole-4-carbonitrile], the IC80 in the assay on C. albicans ATCC MYA-573 came out at 0.125 µg/mL (≈ 0.246 µM); with C. albicans ATCC90028, 0.063 µg/mL (≈ 0.124 µM); with C. glabrata ATCC48435 it was 0.032 µg/mL (≈ 0.0629 µM).
Turning to `Cc1c(-c2ccccc2)c(N2CC[C@H](N(C)C)C2)c2oc(-c3ccco3)nc2c1C#N` [Example 34, 7-[(3S)-3-(Dimethylamino)pyrrolidin-1-yl]-2-(2-furyl)-5-methyl-6-phenyl-1,3-benzoxazole-4-carbonitrile], the IC80 worked out at 0.25 µg/mL (≈ 0.606 µM) in the assay with C. albicans ATCC MYA-573, 0.25 µg/mL (≈ 0.606 µM) in the assay with C. albicans ATCC90028 and 0.032 µg/mL (≈ 0.0776 µM) in the assay on C. glabrata ATCC48435.
Consider `Cc1c(-c2ccccc2)c(N2CC[C@H](N(C)C)C2)c2oc(C(=O)N(C)CCO)nc2c1C#N` [Example 49, 4-Cyano-7-[(3S)-3-(dimethylamino)pyrrolidin-1-yl]N-(2-hydroxyethyl)-N,5-dimethyl-6-phenyl-1,3-benzoxazole-2-carboxamide], for which the IC80 was determined as 0.5 µg/mL (≈ 1.12 µM) in the assay with C. albicans ATCC MYA-573, 0.5 µg/mL (≈ 1.12 µM) with C. albicans ATCC90028 and 0.063 µg/mL (≈ 0.141 µM) in the assay with C. glabrata ATCC48435.
Regarding `Cc1c(-c2ccccc2)c(N2CC[C@H](N(C)C)C2)c2oc(C(=O)N(C)CC(=O)N(C)C)nc2c1C#N` [Example 50, 4-Cyano-N-[2-(dimethylamino)-2-oxoethyl]-7-[(3S)-3-(dimethylamino)pyrrolidin-1-yl]-N,5-dimethyl-6-phenyl-1,3-benzoxazole-2-carboxamide], the IC80 is 2 µg/mL (≈ 4.09 µM) in the assay on C. albicans ATCC MYA-573, 2 µg/mL (≈ 4.09 µM) in the assay with C. albicans ATCC90028 and 0.25 µg/mL (≈ 0.512 µM) in the assay with C. glabrata ATCC48435.
Consider `CN[C@H]1CCN(c2c(-c3csc(C)n3)c(C)c(C#N)c3nc(C(=O)N(C)C)oc23)C1` [Example 52], for which, in the assay on C. albicans ATCC MYA-573, the “GI80 (μg/ml) C. albicans ATCC MYA-573” value was 1 µg/mL (≈ 2.36 µM). In the assay on C. albicans ATCC90028, the “GI80 (μg/ml) C. albicans ATCC90028” value worked out at 1 µg/mL (≈ 2.36 µM). The “GI80 (μg/ml) C. glabrata ATCC48435” value in the assay with C. glabrata ATCC48435 is 0.25 µg/mL (≈ 0.589 µM).
As for `CC(=O)N(C)c1nc2c(C#N)c(C)c(-c3ccccc3)c(N3CC[C@H](N(C)C)C3)c2o1` [Example 54, N-{4-Cyano-7-[(3S)-3-(dimethylamino)pyrrolidin-1-yl]-5-methyl-6-phenyl-1,3-benzoxazol-2-yl}-N-methylacetamide], the IC80 in the assay with C. albicans ATCC MYA-573 worked out at 0.25 µg/mL (≈ 0.599 µM); in the assay with C. albicans ATCC90028 it was 0.125 µg/mL (≈ 0.299 µM); in the assay on C. glabrata ATCC48435, 0.063 µg/mL (≈ 0.151 µM).
For the compound `Cc1c(-c2ccccc2)c(N2CC[C@H](N(C)C)C2)c2oc(N(C)C)nc2c1C#N` [Example 56, 2-(Dimethylamino)-7-[(3S)-3-(dimethylamino)pyrrolidin-1-yl]-5-methyl-6-phenyl-1,3-benzoxazole-4-carbonitrile], the IC80 with C. albicans ATCC MYA-573 was 0.5 µg/mL (≈ 1.28 µM); in the assay on C. albicans ATCC90028, 0.125 µg/mL (≈ 0.321 µM); in the assay on C. glabrata ATCC48435, 0.063 µg/mL (≈ 0.162 µM).
On to `Cc1c(-c2ccccc2)c(N2CC[C@H](N(C)C)C2)c2oc(N(C)C(C)(C)C)nc2c1C#N` [Example 62, 2-(N-tert-Butyl-N-methylamino)-7-[(3S)-3-(dimethylamino)pyrrolidin-1-yl]-5-methyl-6-phenyl-1,3-benzoxazole-4-carbonitrile], for which the IC80 in the assay with C. albicans ATCC MYA-573 is 0.063 µg/mL (≈ 0.146 µM); in the assay on C. albicans ATCC90028, 0.063 µg/mL (≈ 0.146 µM); in the assay on C. glabrata ATCC48435, 0.032 µg/mL (≈ 0.0741 µM).
Consider `Cc1c(-c2ccccc2)c(N2CC[C@H](N(C)C)C2)c2oc(N3CC(C(=O)O)C3)nc2c1C#N` [Example 67, 1-{4-Cyano-7-[(3S)-3-(dimethylamino)pyrrolidin-1-yl]-5-methyl-6-phenyl-1,3-benzoxazol-2-yl}-azetidine-3-carboxylic acid], for which the IC80 in the assay with C. albicans ATCC MYA-573 is greater than 4 µg/mL; in the assay with C. albicans ATCC90028, greater than 4 µg/mL; with C. glabrata ATCC48435, 0.25 µg/mL (≈ 0.561 µM).
